In patent US7772208B2, “2′,3′-dideoxynucleoside analogues for the treatment or prevention of Flaviviridae infections” (Pharmasset, Inc., priority 2002, dated 2010):
Where a name gives a salt, the structure may show the parent alone.

Columns and labels:
[1] = biological target: T1, NS5B enzyme (HCV polymerase, NS5Bt) (Hepatitis C virus genotype 1a, UniProt P27958); experiment: HCV polymerase (RdRp) inhibition assay; type: biochemical; details: for inhibition when treated: FIG. 4; for change of inhibition with increase in manganese concentration: FIG. 5
T1 construct: added a methionine and alanine to the N terminus and truncated the C-terminal 21 amino acids, replacing them with a hexahistidine tag; hexahistidine (C); made in house; host or cells: E. coli BL21(DE3)pLysS, plasmid pRSK1 in pET32a
From the text: The HCV NS5B gene was amplified from a genotype 1A, clone, p134/pBRTM 2029-3011 (ΔAvrII). The primers used added a methionine and alanine to the N terminus and truncated the C-terminal 21 amino acids, replacing them with a hexahistidine tag, which allowed increased soluble product in E. coli and metal affinity purification. The PCR product was cloned into the pET32a expression construct (Novagen) at the NcoI and BamHI sites and the resultant plasmid (pRSK1) was sequenced by the Stanford PAN facility using standard methods. […] (DE3)pLysS cells (Novagen) were transformed by pRSK1 and grown at 37° C. to an optical density of 0.1, at which time the cells were switched to room temperature. At an optical density of 0.3-0.5, isopropyl-β-D-thiogalactopyanoside was added to a final concentration of 0.5 mM and the cells were harvested after 6 h. The cell pellet was frozen, thawed and resuspended in buffer containing 50 mM sodium phosphate pH 7.0, 10% glycerol, 0.3 M NaCl, 2 mM β-mercaptoethanol, 0.5% β-octyl-glucoside. The cell extract was sonicated, and cellular debris removed by centrifugation. The extract was incubated batch-wise with Talon metal affinity resin (Clontech), washed extensively with the above buffer, and then poured into a column for a stepwise imidazole elution. The polymerase, referred to as NS5Bt, eluted specifically between 70 mM and 250 mM imidazole and was ˜90% pure.
RdRp assays were a modification of the assays described in Kao et al. (Kao, C, C.; Yang, X.; Kline, A.; Wang, Q. M.; Barket, D.; Heinz, B. A. (2000) J. Virol. 74, 11121-11128). The template used allows for de novo synthesis and has its 3′ termini blocked by puromycin, which largely prevents the high molecular weight product from forming and allows for predominantly 24- and 25-nucleotide products to be seen. Each reaction contained 50 mM Hepes-NaOH pH 8.0, 0.65 μM template, 0.1 μM purified NS5Bt described above, 250 μM GTP, 5 μM UTP, 0.6 μM CTP, and 1 μM [αP32] ATP, 0.5 mM MnCl2, 7 mM MgCl2, 18 mM DTT, and the stated concentration of the analog. Reaction mixes were incubated at 27° C. for 45 min. Reactions were terminated by the addition of ⅕ the volume of 5× proteinase K mix (250 μg proteinase K/ml [Sigma, St Louis, Mo.], 375 mM Hepes-NaOH pH 8, 0.5% SDS, 25 mM EDTA) and incubated for 10 min at 37° C. Reactions were then precipitated with isopropanol, and glycogen as a carrier, and washed twice with 70% ethanol to remove salt. The RNA was resuspended in formamide loading buffer, heated to 65° C. for 3 min and loaded on a 20% acrylamide/7 M urea/TBE denaturing gel and separated by electrophoresis at 50° C. Quantification of bands was performed using Phosphoimager analysis.

HCV protease = details: SDS-PAGE and autoradiography assay; cited from earlier work

T1 sequence (P27958 2421-2990): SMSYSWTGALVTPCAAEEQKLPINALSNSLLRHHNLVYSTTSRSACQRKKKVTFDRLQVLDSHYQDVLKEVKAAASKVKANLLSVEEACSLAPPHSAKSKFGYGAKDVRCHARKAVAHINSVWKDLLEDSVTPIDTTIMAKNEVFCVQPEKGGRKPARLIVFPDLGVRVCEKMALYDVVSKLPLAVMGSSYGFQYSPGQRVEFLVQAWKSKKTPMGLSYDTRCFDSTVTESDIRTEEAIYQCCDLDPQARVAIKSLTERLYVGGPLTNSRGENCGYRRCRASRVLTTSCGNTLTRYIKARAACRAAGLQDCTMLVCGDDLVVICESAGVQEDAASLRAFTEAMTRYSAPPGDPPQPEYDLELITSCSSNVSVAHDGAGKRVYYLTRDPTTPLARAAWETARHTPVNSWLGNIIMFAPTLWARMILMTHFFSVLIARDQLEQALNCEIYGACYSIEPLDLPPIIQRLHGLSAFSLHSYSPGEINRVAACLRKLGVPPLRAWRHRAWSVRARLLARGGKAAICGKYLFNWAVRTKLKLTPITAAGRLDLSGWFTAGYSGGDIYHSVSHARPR

| SMILES | inhibition when treated [1] | change of inhibition with increase in manganese concentration [1] | activity against HCV protease (HCV protease) | inhibition of NS5B enzyme ([1]; FIG. 2 and FIG. 3, triphosphate) |
| --- | --- | --- | --- | --- |
| Nc1ccn([C@@H]2CC[C@H](CO)O2)c(=O)n1 [L-ddC, β-L-2′,3′-dideoxycytidine] | no inhibition | not affected |  |  |
| Nc1nc(=O)n([C@@H]2CC[C@H](CO)O2)cc1F [L-ddFC, β-L-2′,3′-Dideoxy-5-fluorocytidine] | dose-dependent inhibition | increase of inhibition |  |  |
| CCCC(=O)c1cc2c(c(O)c1C)C(=O)C(=O)c1c(O)cccc1-2 [Sch 68631] |  |  | micromolar activity |  |
| Nc1nc(=O)n([C@@H]2CC[C@H](COP(=O)(O)OP(=O)(O)OP(=O)(O)O)O2)cc1F [β-L-ddFC triphosphate, β-L-2′,3′-Dideoxy-5-fluorocytidine triphosphate, triethylammonium salt] |  |  |  | dose-dependent inhibition |
